The values below come from US20220370440A1 (Lead Discovery Center GmbH, priority 2018, published 2022).

The term IC50 denotes the concentration that gives 50% inhibition.

The target of series [1] is T1, HER2 INS YVMA (Homo sapiens, UniProt P04626, INS775YVMA).
T1 construct: purchased DPF
Kind of series: Lance Kinase Activity Assay, HER2 INS YVMA (Her2 Exon 20 INSYVMA Lance). The series is classed as biochemical. Particulars: biochemical Lance assay. Summed up: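 IC50 was fitted to sigmoidal curves of TR-FRET signal (665 and 615 nm emission after 340 nm excitation) from an Eu anti-phospho antibody binding the phosphorylated ULight peptide. The ATP-started reaction ran 1 h at RT and was then quenched with 10 mM EDTA plus antibody for a further 1 h. Compounds were tested as 8-point, 3-fold dilutions.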

Series [2] deals with Her2 Exon 20 INSYVMA Ba/F3 (Homo sapiens, UniProt P04626, DUP772-775, cells depend on it). The series is described as follows: Her2 Exon 20 INSYVMA Ba/F3 CellTiter-Glo. The series is classed as cell-based. To be noted: CellTiter-Glo, 72 h, read-out: Her2 Exon 20 INSYVMA Ba/F3 CTG IC50. The method, boiled down: (§1)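 IC50 values come from dose–response fits of CellTiter-Glo luminescence in Ba/F3 cells treated with compound for 72 h at 37 °C, 5% CO2. Vehicle (DMSO) and 10 μM staurosporine wells set the assay window, with Z′ ≥0.5 required.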
Sequence of Her2 Exon 20 INSYVMA Ba/F3 (P04626 with tags, fused parts or gaps DUP772-775): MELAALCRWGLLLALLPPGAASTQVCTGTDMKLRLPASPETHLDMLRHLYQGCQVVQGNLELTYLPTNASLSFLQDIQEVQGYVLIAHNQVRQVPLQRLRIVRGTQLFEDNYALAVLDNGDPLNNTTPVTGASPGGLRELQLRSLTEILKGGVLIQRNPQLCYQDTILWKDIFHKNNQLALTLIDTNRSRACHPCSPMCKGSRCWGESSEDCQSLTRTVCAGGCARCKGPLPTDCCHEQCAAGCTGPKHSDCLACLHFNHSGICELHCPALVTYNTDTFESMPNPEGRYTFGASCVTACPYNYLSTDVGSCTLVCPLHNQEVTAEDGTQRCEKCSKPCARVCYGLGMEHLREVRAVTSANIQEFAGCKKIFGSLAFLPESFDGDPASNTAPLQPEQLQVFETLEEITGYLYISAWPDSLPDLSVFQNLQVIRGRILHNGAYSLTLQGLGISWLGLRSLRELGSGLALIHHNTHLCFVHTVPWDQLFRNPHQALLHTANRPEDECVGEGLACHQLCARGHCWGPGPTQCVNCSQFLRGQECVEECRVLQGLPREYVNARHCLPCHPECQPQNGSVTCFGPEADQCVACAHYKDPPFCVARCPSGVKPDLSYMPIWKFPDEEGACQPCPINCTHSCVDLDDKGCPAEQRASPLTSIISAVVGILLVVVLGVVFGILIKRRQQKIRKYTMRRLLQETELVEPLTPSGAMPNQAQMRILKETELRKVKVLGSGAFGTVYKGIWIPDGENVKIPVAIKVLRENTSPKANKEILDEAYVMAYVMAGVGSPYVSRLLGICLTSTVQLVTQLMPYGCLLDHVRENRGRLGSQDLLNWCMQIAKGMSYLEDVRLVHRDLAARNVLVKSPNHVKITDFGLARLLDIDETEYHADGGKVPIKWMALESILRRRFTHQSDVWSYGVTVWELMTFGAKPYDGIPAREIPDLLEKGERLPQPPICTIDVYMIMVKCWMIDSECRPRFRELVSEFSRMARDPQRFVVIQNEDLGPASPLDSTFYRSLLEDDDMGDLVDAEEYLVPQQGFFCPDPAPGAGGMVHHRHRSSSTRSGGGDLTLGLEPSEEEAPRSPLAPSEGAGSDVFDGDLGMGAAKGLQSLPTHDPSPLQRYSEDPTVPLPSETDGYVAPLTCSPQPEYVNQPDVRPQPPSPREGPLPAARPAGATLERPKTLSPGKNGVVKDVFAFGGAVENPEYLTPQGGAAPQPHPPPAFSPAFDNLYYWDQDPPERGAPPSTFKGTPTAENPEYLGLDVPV

Series [3] concerns the target EGFR wt (Homo sapiens, UniProt P00533). The series is described as follows: EGFR wt Lance assay. The series is classed as biochemical. The procedure:
(§2) Inhibition is indicated as […] [nM] (“−”=not measured). Compounds having an activity designated as “A” provided an IC50≤100 nM; compounds having an activity designated as “B” provided an 100 nM<IC50≤500 nM; compounds having an activity designated as “C” provided an 500 nM<IC50≤1000 nM; compounds having an activity designated as “D” provided an 1000 nM<IC50≤100000 nM; and compounds having an activity designated as “E” provided an IC50>10000 nM.

Series [4] concerns the target EGFR T790ML858R (Homo sapiens, UniProt P00533, L858R/T790M). The series is described as follows: EGFR T790ML858R Lance assay. The series is classed as biochemical. The procedure:
as §2

For series [5], the target named is EGFR Exon 20 INSNPH Ba/F3 (Homo sapiens, UniProt P00533, DUP771-773, cells depend on it). Kind of series: EGFR Exon 20 INSNPH Ba/F3 CellTiter-Glo. It is filed as cell-based. Particulars: CellTiter-Glo, 72 h, read-out: EGFR Exon 20 INSNPH Ba/F3 CTG IC50. Summed up: as §1
Sequence of EGFR Exon 20 INSNPH Ba/F3 (P00533 with tags, fused parts or gaps DUP771-773): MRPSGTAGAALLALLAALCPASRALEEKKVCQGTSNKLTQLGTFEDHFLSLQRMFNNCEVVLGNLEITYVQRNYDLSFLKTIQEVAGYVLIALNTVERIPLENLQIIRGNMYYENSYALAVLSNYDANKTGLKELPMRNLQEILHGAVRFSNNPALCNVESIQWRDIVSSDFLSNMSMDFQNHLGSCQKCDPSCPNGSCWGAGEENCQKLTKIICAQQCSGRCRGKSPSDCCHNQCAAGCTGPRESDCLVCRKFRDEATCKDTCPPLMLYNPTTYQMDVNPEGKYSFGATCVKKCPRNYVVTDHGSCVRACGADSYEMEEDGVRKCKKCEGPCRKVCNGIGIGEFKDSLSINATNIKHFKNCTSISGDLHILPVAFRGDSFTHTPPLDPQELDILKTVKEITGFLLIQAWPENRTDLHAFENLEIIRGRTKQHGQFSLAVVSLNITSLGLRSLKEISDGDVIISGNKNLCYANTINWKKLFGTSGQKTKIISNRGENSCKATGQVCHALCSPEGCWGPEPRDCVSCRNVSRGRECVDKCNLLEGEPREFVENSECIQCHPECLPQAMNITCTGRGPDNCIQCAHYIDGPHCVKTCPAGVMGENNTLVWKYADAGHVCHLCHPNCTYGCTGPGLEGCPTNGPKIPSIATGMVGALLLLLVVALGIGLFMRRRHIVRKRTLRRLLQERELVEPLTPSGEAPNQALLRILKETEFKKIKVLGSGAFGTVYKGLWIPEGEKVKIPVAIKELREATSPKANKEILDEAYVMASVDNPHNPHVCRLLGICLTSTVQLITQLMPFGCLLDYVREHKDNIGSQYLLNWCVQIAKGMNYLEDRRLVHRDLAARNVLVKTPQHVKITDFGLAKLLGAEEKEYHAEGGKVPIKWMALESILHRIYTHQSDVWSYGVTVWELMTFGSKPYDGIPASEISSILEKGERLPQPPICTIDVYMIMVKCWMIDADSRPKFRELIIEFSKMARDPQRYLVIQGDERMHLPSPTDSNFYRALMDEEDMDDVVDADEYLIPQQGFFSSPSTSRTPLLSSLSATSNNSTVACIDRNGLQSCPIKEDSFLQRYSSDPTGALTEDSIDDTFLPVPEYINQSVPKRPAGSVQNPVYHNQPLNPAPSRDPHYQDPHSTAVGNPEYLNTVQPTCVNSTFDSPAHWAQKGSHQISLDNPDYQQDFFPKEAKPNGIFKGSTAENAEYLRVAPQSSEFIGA
The nature of series [6]: Metabolic stability in mouse liver microsomes without cofactor NADPH. It is filed as in vitro ADME. To be noted: 3 μM test compound, mouse liver microsomes, without NADPH, 50 min, 37° C., LC-MS/MS. The method, boiled down: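 Cofactor-free incubation: no NADPH added to mouse liver microsomes, with compound at 3 μM and 37° C. Remaining parent was quantified by LC-MS/MS at time points up to 50 minutes to track depletion.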

The test system of series [7] is H1975. The series is described as follows: H1975 CellTiter-Glo. The series is classed as cell-based. To be noted: Homo sapiens, NCI-H1975; 72 h compound incubation; read-out: H1975 CTG IC50. Summed up: (§3)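 72 h compound exposure after 24 h attachment, 37° C./5% CO2; CellTiter-Glo ATP luminescence read-out; IC50 by dose-response fit; DMSO vehicle and 10 μM Staurosporine as controls; plates accepted only if Z′ ≥0.5.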
Background: ATP-based viability assays read luminescence as a measure of living cells.

Series [8] relates to A431. Kind of series: A431 CellTiter-Glo. It is filed as cell-based. To be noted: Homo sapiens, A-431; 72 h compound incubation; read-out: A431 CTG IC50. The method, boiled down:
as §3

Structures are written as SMILES.

Sequence of EGFR wt (P00533 25-1210): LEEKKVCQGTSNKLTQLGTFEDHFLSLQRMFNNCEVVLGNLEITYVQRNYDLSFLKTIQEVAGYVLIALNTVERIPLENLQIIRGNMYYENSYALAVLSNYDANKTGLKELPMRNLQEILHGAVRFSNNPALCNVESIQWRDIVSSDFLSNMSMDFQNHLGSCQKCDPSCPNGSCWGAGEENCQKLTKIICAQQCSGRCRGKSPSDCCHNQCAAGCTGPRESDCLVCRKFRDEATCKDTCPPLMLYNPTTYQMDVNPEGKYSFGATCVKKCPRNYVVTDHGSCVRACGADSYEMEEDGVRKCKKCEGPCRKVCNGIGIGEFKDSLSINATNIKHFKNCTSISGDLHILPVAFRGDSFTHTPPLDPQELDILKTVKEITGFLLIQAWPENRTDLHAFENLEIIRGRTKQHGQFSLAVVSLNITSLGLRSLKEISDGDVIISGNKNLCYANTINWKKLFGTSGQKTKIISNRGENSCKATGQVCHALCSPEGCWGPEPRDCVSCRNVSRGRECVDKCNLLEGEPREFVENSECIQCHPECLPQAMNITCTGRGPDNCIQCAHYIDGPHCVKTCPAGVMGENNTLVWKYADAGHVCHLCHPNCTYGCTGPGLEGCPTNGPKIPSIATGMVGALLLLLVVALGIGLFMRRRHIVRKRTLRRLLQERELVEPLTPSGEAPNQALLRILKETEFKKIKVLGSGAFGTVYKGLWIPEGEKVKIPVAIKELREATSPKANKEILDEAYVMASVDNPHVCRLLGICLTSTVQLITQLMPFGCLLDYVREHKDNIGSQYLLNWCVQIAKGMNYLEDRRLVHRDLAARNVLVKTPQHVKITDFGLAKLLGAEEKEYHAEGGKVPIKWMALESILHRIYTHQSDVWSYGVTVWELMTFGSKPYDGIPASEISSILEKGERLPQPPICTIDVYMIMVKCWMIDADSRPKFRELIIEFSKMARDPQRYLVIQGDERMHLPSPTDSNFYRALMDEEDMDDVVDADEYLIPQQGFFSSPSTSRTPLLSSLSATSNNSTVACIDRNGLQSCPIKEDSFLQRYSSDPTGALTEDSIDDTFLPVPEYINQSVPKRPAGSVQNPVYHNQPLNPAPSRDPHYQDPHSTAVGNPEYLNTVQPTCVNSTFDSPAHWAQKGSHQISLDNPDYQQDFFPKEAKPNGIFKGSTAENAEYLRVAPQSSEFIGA
T1 sequence (P04626 with tags, fused parts or gaps INS775YVMA): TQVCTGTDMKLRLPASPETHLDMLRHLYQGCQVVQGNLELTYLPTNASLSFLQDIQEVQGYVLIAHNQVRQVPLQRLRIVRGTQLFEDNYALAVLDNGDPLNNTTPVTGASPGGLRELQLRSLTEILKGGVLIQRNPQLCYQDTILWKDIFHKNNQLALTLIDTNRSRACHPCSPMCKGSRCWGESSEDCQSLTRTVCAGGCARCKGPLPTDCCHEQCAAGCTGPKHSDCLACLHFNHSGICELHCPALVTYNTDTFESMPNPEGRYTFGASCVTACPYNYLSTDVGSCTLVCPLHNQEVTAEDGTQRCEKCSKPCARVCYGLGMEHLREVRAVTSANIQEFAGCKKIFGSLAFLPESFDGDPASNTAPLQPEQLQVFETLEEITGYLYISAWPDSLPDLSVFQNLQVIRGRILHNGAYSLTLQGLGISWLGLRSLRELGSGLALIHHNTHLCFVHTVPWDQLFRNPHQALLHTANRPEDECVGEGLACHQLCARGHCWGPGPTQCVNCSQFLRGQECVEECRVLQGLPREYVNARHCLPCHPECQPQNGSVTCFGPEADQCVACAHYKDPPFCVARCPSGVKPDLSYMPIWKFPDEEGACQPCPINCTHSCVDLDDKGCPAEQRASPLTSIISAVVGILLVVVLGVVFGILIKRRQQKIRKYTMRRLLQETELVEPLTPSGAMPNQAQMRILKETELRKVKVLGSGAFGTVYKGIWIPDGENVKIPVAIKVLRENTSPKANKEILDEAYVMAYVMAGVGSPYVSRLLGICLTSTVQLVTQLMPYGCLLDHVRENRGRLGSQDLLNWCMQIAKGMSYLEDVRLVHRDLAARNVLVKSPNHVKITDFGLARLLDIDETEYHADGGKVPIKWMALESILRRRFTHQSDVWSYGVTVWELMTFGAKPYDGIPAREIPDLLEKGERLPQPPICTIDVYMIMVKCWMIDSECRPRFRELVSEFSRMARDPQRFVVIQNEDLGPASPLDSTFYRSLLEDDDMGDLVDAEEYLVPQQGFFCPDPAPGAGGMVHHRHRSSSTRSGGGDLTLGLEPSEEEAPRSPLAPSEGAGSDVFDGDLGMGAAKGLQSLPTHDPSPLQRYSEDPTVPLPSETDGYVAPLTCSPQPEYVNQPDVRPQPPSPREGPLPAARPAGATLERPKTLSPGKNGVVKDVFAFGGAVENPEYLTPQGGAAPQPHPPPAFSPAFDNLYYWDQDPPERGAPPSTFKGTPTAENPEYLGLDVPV

Consider `C=CC(=O)Nc1cc(-c2c(-c3ccc(OCCN(C)C)cc3)[nH]c3ncc(C(=O)OC(C)C)cc23)ccc1C` [Example 159, isopropyl 3-(3-acrylamido-4-methylphenyl)-2-(4-(2-(dimethylamino)ethoxy)phenyl)-1H-pyrrolo[2,3-b]pyridine-5-carboxylate], for which the IC50 in series [1] was at most 100 nM; in series [3] it was at most 100 nM; in series [4], at most 100 nM; in series [7], 100 to 500 nM; in series [8], 1000 to 100000 nM. Besides, the GI50 in series [2] and in series [5] was 100 to 500 nM in each case. In addition, the “Stability in presence of mouse liver microsomes without cofactor NADPH [% remaining after 50 min]” value in series [6] is reported as over 99 % remaining after 50 min.

Regarding `C=CC(=O)Nc1cc(-c2c(-c3ccc(CN4CCN(C)CC4)cc3)[nH]c3ncc(C(=O)OC(C)C)cc23)ccc1C` [Example 160, isopropyl 3-(3-acrylamido-4-methylphenyl)-2-(4-((4-methylpiperazin-1-yl)methyl)phenyl)-1H-pyrrolo[2,3-b]pyridine-5-carboxylate], the IC50 is at most 100 nM in series [1]; at most 100 nM in series [3]; at most 100 nM in series [4]; 100 to 500 nM in series [7]; 1000 to 100000 nM in series [8]. Moreover, the GI50 in series [2] and in series [5] was 100 to 500 nM throughout. In addition, in series [6], the “Stability in presence of mouse liver microsomes without cofactor NADPH [% remaining after 50 min]” value is on record as over 99 % remaining after 50 min.

Regarding `C=CC(=O)Nc1cc(-c2c(-c3ccc(CCN(C)C)cc3)[nH]c3ncc(C(=O)OC(C)C)cc23)ccc1C` [Example 161, isopropyl 3-(3-acrylamido-4-methylphenyl)-2-(4-(2-(dimethylamino)ethyl)phenyl)-1H-pyrrolo[2,3-b]pyridine-5-carboxylate], the IC50 in series [1] is at most 100 nM; in series [3] it was at most 100 nM; in series [4], at most 100 nM; in series [7] it was 100 to 500 nM; in series [8] it was 1000 to 100000 nM. For the same compound, the GI50 in series [2] and in series [5] was 100 to 500 nM in each case. Moreover, the “Stability in presence of mouse liver microsomes without cofactor NADPH [% remaining after 50 min]” value in series [6] is listed as over 99 % remaining after 50 min.

On to `C=CC(=O)Nc1cc(-c2c(-c3ccc(N4CCN(C)CC4)c(F)c3)[nH]c3ncc(C(=O)OC(C)C)cc23)ccc1C` [Example 164, isopropyl 3-(3-acrylamido-4-methylphenyl)-2-(3-fluoro-4-(4-methylpiperazin-1-yl)phenyl)-1H-pyrrolo[2,3-b]pyridine-5-carboxylate], for which the IC50 in series [1] was at most 100 nM; in series [3] it was at most 100 nM; in series [4], at most 100 nM; in series [7] it was 100 to 500 nM; in series [8] it was 1000 to 100000 nM. Further, the GI50 in series [2] and in series [5] was 100 to 500 nM in each case. The “Stability in presence of mouse liver microsomes without cofactor NADPH [% remaining after 50 min]” value in series [6] was over 99 % remaining after 50 min.

With `C=CC(=O)Nc1cc(-c2c(-c3ccc(N4CCN(C)CC4)cc3)[nH]c3ncc(C(=O)OC(C)C)cc23)cc(F)c1C` [Example 165, isoproyl 3-(3-acrylamido-5-fluoro-4-methylphenyl)-2-(4-(4-methylpiperazin-1-yl)phenyl)-1H-pyrrolo[2,3-b]pyridine-5-carboxylate 2,2,2-trifluoroacetate], the IC50 was at most 100 nM in series [1]; at most 100 nM in series [3]; at most 100 nM in series [4]; 100 to 500 nM in series [7]; 1000 to 100000 nM in series [8]. Besides, the GI50 in series [2] and in series [5] was 100 to 500 nM each time. The “Stability in presence of mouse liver microsomes without cofactor NADPH [% remaining after 50 min]” value in series [6] is over 99 % remaining after 50 min.
